Article doi:10.1101/2023.11.24.568596v1 (biorxiv, 2023)

Tests used:
Settings in all cases: binder
BIKE = BIKE (Homo sapiens, UniProt Q9NSY1)
BMX = biological target: T1, BMX (Homo sapiens, UniProt P51813)
T1 sequence (P51813 1-675): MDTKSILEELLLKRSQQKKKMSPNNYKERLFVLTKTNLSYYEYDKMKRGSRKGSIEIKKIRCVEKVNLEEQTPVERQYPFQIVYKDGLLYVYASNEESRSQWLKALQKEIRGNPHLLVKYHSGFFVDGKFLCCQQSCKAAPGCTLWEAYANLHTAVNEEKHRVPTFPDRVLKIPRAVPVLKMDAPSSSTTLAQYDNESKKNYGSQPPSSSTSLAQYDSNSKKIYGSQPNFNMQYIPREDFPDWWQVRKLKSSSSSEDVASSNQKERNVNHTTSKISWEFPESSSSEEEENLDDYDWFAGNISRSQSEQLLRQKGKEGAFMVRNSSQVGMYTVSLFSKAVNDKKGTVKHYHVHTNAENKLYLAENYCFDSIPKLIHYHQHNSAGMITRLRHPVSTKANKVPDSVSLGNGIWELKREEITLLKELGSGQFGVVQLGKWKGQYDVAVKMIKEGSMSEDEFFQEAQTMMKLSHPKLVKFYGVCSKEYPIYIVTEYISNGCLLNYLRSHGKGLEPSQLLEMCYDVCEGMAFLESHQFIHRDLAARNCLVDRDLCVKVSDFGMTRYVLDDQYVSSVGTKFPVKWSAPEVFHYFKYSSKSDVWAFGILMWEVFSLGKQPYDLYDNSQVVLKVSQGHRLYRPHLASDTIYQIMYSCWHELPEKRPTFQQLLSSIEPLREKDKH

MAP2K4 = biological target: T2, MAP2K4 (Homo sapiens, UniProt P45985)
T2 sequence (P45985 1-399): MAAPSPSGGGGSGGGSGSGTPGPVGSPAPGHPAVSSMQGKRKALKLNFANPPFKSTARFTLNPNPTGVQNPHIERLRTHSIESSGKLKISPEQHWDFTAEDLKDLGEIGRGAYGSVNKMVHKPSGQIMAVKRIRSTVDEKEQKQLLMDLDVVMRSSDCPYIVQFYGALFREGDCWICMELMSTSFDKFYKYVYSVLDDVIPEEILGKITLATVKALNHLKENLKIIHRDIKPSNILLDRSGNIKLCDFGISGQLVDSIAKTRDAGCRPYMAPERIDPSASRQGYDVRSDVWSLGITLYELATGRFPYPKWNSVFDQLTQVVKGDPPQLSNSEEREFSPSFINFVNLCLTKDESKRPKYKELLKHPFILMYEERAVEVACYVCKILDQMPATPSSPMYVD

MAP3K5 = biological target: T3, MAP3K5 (Homo sapiens, UniProt Q99683)
T3 sequence (Q99683 1-1374): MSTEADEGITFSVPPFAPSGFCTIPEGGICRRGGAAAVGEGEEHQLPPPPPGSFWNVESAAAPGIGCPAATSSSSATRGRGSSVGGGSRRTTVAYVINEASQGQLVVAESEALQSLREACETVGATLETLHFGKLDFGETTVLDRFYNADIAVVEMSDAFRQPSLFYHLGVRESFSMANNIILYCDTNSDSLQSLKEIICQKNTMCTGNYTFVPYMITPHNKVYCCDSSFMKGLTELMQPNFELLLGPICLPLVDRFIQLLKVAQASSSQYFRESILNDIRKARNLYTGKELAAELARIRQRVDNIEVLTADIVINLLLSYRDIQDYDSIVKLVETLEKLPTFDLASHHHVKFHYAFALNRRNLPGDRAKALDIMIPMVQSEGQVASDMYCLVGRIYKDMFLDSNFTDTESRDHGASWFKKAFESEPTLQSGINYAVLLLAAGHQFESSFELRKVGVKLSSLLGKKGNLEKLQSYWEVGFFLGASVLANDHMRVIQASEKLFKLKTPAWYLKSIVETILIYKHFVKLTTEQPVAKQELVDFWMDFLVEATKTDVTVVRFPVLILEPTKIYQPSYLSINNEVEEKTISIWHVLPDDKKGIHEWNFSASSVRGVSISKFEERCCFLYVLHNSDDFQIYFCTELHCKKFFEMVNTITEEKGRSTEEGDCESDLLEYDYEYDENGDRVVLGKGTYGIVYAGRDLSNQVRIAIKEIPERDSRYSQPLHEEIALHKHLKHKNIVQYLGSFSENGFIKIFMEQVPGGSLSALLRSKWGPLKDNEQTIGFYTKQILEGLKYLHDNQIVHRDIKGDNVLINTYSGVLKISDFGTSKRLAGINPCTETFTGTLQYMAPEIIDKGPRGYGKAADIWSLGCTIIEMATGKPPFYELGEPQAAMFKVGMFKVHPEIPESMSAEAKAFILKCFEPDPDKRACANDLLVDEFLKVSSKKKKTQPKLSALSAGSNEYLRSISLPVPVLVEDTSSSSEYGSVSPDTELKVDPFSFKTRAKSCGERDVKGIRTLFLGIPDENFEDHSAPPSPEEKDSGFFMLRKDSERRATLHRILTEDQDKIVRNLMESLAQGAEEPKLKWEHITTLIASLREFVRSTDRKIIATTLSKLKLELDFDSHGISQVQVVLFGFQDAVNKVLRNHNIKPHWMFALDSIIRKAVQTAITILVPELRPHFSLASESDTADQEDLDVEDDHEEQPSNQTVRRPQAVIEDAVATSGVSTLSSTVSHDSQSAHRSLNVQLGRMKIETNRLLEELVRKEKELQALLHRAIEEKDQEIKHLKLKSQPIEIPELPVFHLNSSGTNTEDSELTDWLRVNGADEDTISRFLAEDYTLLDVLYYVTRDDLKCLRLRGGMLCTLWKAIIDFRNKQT

Chain of BIKE (Q9NSY1 whole entry): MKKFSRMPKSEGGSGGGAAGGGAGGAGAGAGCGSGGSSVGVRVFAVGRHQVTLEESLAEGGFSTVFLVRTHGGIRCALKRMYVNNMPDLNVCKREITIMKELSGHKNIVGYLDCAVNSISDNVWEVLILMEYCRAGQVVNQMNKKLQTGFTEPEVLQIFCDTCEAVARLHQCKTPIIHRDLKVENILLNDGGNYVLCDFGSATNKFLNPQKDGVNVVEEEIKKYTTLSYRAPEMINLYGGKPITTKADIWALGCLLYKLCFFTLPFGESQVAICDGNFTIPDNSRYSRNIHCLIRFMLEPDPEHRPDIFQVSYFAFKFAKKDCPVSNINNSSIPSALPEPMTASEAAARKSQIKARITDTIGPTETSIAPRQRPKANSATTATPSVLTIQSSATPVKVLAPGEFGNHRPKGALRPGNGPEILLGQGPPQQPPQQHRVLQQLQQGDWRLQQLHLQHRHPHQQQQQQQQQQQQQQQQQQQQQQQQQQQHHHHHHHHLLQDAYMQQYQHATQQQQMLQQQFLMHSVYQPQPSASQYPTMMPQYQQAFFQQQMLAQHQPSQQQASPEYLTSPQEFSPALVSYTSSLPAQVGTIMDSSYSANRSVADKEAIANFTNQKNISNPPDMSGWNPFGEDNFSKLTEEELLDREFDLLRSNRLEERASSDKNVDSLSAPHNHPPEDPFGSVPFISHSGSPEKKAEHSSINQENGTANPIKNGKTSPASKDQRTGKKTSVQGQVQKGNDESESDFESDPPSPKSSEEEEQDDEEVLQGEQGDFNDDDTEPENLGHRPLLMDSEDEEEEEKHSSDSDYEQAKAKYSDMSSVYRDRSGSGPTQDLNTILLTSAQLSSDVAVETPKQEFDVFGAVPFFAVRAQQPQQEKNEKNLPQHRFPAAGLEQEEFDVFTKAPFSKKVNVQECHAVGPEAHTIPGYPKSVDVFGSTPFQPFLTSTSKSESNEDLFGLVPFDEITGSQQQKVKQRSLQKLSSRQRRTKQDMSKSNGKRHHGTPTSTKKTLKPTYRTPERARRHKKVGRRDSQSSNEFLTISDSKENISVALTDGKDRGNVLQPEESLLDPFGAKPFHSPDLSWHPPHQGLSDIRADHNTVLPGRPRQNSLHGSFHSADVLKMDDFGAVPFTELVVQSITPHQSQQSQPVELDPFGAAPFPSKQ

## CNc1ncc2cc(-c3ccc(-c4cccc(C)n4)cc3Cl)c(=O)n(CCCCN)c2n1 [compound 20, MRLW5]
BIKE
  ΔTm MRLW5 (20): 3.7 °C
BMX
  ΔTm MRLW5 (20): 3.1 °C
MAP2K4
  ΔTm MRLW5 (20): 7.7 °C
MAP3K5
  ΔTm MRLW5 (20): 12.3 °C

## CNc1ncc2cc(-c3ccc(-c4cccc(C)n4)cc3Cl)c(=O)n(CCC3CCNCC3)c2n1 [compound 22, 6-(2-Chloro-4-(6-methylpyridin-2-yl)phenyl)-2-(methylamino)-8-(2-(piperidin-4-yl)ethyl)pyrido[2,3-d]pyrimidin-7(8H)-one]
BIKE
  ΔTm 22: 7.1 °C
BMX
  ΔTm 22: 4.1 °C
MAP2K4
  ΔTm 22: 6.1 °C
MAP3K5
  ΔTm 22: 12.0 °C

## CNc1ncc2cc(-c3ccc(-c4cccc(C)n4)cc3Cl)c(=O)n(C[C@H]3CC[C@H](N)CC3)c2n1 [compound 23, 23]
BIKE
  ΔTm 23: 6.9 °C
BMX
  ΔTm 23: 3.4 °C
MAP2K4
  ΔTm 23: 8.2 °C
MAP3K5
  ΔTm 23: 12.4 °C

## Cc1cccc(-c2ccc(-c3cc4cnc(NC(CO)CO)nc4n(CCCCN)c3=O)c(Cl)c2)n1 [compound 24, 8-(4-Aminobutyl)-6-(2-chloro-4-(6-methylpyridin-2-yl)phenyl)-2-((1,3-dihydroxypropan-2-yl)amino)pyrido[2,3-d]pyrimidin-7(8H)-one]
BIKE
  ΔTm MR24 (24): -0.4 °C
BMX
  ΔTm MR24 (24): 0.6 °C
MAP2K4
  ΔTm MR24 (24): 5.0 °C
MAP3K5
  ΔTm MR24 (24): 9.0 °C

## Cc1cccc(-c2ccc(-c3cc4cnc(NCCCc5ccc(N)cc5)nc4n(CCCCN)c3=O)c(Cl)c2)n1 [compound 25, 8-(4-Aminobutyl)-2-((3-(4-aminophenyl)propyl)amino)-6-(2-chloro-4-(6-methylpyridin-2-yl)phenyl)pyrido[2,3-d]pyrimidin-7(8H)-one]
BIKE
  ΔTm 25: 1.8 °C
BMX
  ΔTm 25: 3.1 °C
MAP2K4
  ΔTm 25: 7.9 °C
MAP3K5
  ΔTm 25: 11.8 °C

## Cc1cccc(-c2ccc(-c3cc4cnc(NCCCN5CCOCC5)nc4n(CCCCN)c3=O)c(Cl)c2)n1 [compound 26, MR26]
BIKE
  ΔTm MR26 (26): 0.7 °C
BMX
  ΔTm MR26 (26): 2.4 °C
MAP2K4
  ΔTm MR26 (26): 5.6 °C
MAP3K5
  ΔTm MR26 (26): 9.8 °C
